We go through 5 compounds from patent publication US20230212549A1, “COMPOUNDS COMPRISING A […] LIGAND AND USE THEREOF” (priority 2021, published 2023).

Data set [1] deals with T1, FAP-expressing human WI-38 fibroblasts (Homo sapiens, UniProt Q12884).
T1 construct: FAP-expressing human WI-38 fibroblasts (ECACC) were cultured in EMEM; host or cells: WI-38 human fibroblasts
The experiment in a line: Competitive FACS binding assay. The protocol: Cells were analyzed in an Attune NxT flow cytometer. […] […].
Cells were analyzed in an Attune NxT flow cytometer. […]
On the technique in general: Flow cytometry measures light scatter and fluorescence of single cells or particles in a stream.

Data set [2] has as its target T2, Human recombinant FAP (Homo sapiens, UniProt Q12884). The experiment in a line: Surface plasmon resonance (Biacore) assay. Type of data set: binding. Background: Surface plasmon resonance follows binding to a sensor surface in real time, without labels.
For data set [3], the target named is T2, Human recombinant FAP. The experiment in a line: FRET-based FAP protease activity assay. Type of data set: biochemical. Further details: purchased R&D systems 3715-SE.
Data set [4] is described as follows: in vivo. Particulars: female, athymic nude, mouse, iv.
[5] abbreviates: pIC50 Category (Activity), FRET-based FAP protease activity assay, recombinant human FAP, 37° C.
Where [6] appears, read: pIC50 Category (activity), Recombinant human FAP.

Each structure is given as a SMILES string. Numbered stars: 1 amine (or outer) side, 2 acyl side, 3 side chain; on linkers, the order of the positions; unused ones are H or OH. Bridge positions count the residues as written; N and C are the ends. Square brackets hold non-standard residues; d marks the D form. Peptide text beside a SMILES is read from it. * marks the point of attachment. ξ: configuration not given here. X17 = NC(=O)[C@H](CCCCNC(=O)CN1CCN(CC(=O)O)CCN(CC(=O)O)CCN(CC(=O)O)CC1)NC(=O)CCC(=O)NCCCOCCOCCOCCCN*; X11 = O=C(O)CN1CCN(CC(=O)O)CCN(C(CCC(=O)NCCSCc2cc(C[*:1])cc(C[*:2])c2)C(=O)O)CC1; mXylylene = c1cc(C[*:1])cc(C[*:2])c1; Hexanoyl = CCCCCC(=O)*; CO = O=C([*:1])[*:2]; ξC = NC(CS)C(=O)O; NHBu = CCCCN*

T2 sequence (Q12884 whole entry): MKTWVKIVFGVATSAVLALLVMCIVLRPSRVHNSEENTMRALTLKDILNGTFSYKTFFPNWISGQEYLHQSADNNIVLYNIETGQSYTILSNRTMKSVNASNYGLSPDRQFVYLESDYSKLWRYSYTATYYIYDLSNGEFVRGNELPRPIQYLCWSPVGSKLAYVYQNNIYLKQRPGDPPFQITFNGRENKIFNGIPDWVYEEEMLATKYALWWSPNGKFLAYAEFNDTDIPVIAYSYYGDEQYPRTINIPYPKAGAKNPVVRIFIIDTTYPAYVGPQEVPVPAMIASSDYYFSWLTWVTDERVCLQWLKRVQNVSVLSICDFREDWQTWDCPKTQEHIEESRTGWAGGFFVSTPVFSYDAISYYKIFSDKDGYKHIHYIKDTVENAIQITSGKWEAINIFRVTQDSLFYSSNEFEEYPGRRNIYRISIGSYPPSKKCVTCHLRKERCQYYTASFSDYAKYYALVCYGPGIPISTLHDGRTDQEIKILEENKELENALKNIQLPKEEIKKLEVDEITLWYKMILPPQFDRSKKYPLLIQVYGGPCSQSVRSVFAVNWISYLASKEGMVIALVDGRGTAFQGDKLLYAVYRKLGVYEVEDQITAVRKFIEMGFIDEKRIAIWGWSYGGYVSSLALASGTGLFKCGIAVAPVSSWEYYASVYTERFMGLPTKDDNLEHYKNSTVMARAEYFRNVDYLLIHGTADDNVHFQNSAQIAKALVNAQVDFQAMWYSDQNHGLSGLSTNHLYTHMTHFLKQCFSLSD
T1 sequence (Q12884 whole entry): as above

In general, IC50 refers to the concentration that gives 50% inhibition. By Kd is commonly meant the equilibrium constant for the complex coming apart. On to `CCCCCC(=O)N[C@H]1CSCc2cccc(c2)CSC[C@@H](C(=O)N[C@@H](CC(=O)O)C(=O)NCCCOCCOCCOCCCNC(=O)CCC(=O)N[C@@H](CCCCNC(=O)CN2CCN(CC(=O)O)CCN(CC(=O)O)CCN(CC(=O)O)CC2)C(N)=O)NC(=O)[C@H](Cc2ccccc2)NC(=O)[C@H](CCC(N)=O)NC(=O)[C@H]([C@@H](C)O)NC(=O)[C@@H]2CCCN2C(=O)[C@@H]2CCCN2C1=O` [3BP-3395, Hex-[Cys(3MeBn)-Pro-Pro-Thr-Gln-Phe-Cys]-Asp-Ttds-Lys(DOTA)-NH2] (Hexanoyl-CPPTQFCD-X17; linker 1-7 via mXylylene), for which the IC50 in data set [1] and in data set [3] (setting [5]) was less than 10 nM each time. Moreover, the Kd in data set [2] was less than 10 nM.

Regarding `CCCCCC(=O)N[C@H]1CSCc2cccc(c2)CSC[C@@H](C(=O)N[C@@H](CC(=O)O)C(=O)NCCCOCCOCCOCCCNC(=O)CCC(=O)N[C@@H](CCCCNC(=O)CN2CCN(CC(=O)O)CCN(CC(=O)O)CCN(CC(=O)O)CC2)C(N)=O)NC(=O)[C@H](Cc2ccccc2)NC(=O)[C@H](CCC(=O)O)NC(=O)[C@H]([C@@H](C)O)NC(=O)[C@@H]2CCCN2C(=O)[C@@H]2CCCN2C1=O` [3BP-3396, Hex-[Cys(3MeBn)-Pro-Pro-Thr-Glu-Phe-Cys]-Asp-Ttds-Lys(DOTA)-NH2] (Hexanoyl-CPPTEFCD-X17; linker 1-7 via mXylylene), the IC50 in data set [1] and in data set [3] (setting [5]) was less than 10 nM in each case. Besides, in data set [2], the Kd is less than 10 nM.

Consider `CCCCCC(=O)N[C@H]1CSCc2cc(CSCCNC(=O)CCC(=O)NCCCOCCOCCOCCCNC(=O)CCC(=O)NCCCOCCOCCOCCCNC(=O)CCC(=O)NCCCOCCOCCOCCCNC(=O)CCC(=O)NCCCOCCOCCOCCCNC(=O)c3ccc4c(c3)C(=O)OC43c4ccc(N)c(S(=O)(=O)O)c4Oc4c3ccc(N)c4S(=O)(=O)O)cc(c2)CSC[C@@H](C(=O)O)NC(=O)[C@H](Cc2ccccc2)NC(=O)[C@H](CCC(N)=O)NC(=O)[C@H]([C@@H](C)O)NC(=O)[C@@H]2CCCN2C(=O)[C@@H]2CCCN2C1=O` [3BP-4232, Hex--[C(tMeBn(AF488--Ttds--Ttds--Ttds--Ttds--AET))-PPTQFC]-OH], for which the Kd in data set [2] is 100 to 794 nM.

As usually defined, the tissue uptake is the share of the injected amount in each gram of the tissue. A low value points to little accumulation. For `CCCC[C@H](NC(=O)CCC(=O)NCCCOCCOCCOCCCNC(=O)CCC(C(=O)O)N1CCN(CC(=O)O)CCN(CC(=O)O)CC1)C(=O)N[C@H]1CSCc2cccc(c2)CSCC(C(=O)O)NC(=O)[C@H](Cc2ccccc2)NC(=O)[C@H](CCC(N)=O)NC(=O)[C@H]([C@@H](C)O)NC(=O)[C@@H]2CCCN2C(=O)[C@@H]2CCCN2C1=O` (stereo partly drawn) [3BP-4714, NODAGA-Ttds-Nle-[Cys(3MeBn)-Pro-Pro-Thr-Glu-Phe-Cys]-OH], the tissue uptake at 0.25 h in data set [4] (blood pool surrogate (BPS)) amounted to 1.52 %ID/g; in data set [4] (kidneys) it was 5 %ID/g; in data set [4] (tumor), 5.15 %ID/g. Moreover, the tissue uptake at 1 h in data set [4] (blood pool surrogate (BPS)) was determined as 0.65 %ID/g; in data set [4] (kidneys), 3.82 %ID/g; in data set [4] (tumor) it was 5.44 %ID/g. For the same compound, the results for the tissue uptake at 3 h in data set [4] (blood pool surrogate (BPS)), in data set [4] (kidneys) and in data set [4] (tumor) were 0.32 %ID/g, 3.83 %ID/g and 5.49 %ID/g, respectively. Moreover, the IC50 in data set [1] and in data set [3] (setting [6]) was 10 to 79.4 nM in each case.

For the compound `CCCCNC(=O)N[C@H]1CSCc2cc(CSCCNC(=O)CCC(C(=O)O)N3CCN(CC(=O)O)CCN(CC(=O)O)CC3)cc(c2)CSCC(C(=O)O)NC(=O)[C@H](Cc2ccccc2)NC(=O)[C@H](CCC(=O)O)NC(=O)[C@H]([C@@H](C)O)NC(=O)[C@@H]2CCCN2C(=O)[C@@H]2CCCN2C1=O` (stereo partly drawn) [3BP-4724, nBu-CAyl-[Cys(tMeBn(NODAGA-AET))-Pro-Pro-Thr-Glu-Phe-Cys]-OH] ({NHBu-CO}-CPPTEF[ξC]-OH; linker 1-7 via X11), the tissue uptake at 0.25 h in data set [4] (blood pool surrogate (BPS), uptake BPS 0.25 h, ^68Ga-labeled, BPS (blood pool surrogate), PET/CT, 0.25 h post tracer injection) came to 2.17 %ID/g; in data set [4] (kidneys, uptake Kidneys 0.25 h, ^68Ga-labeled, PET/CT, 0.25 h post tracer injection), 4.28 %ID/g; in data set [4] (tumor, uptake Tumor 0.25 h, ^68Ga-labeled, HEK-FAP tumor, PET/CT, 0.25 h post tracer injection) it was 3.87 %ID/g. Moreover, the tissue uptake at 1 h is 1.04 %ID/g in data set [4] (blood pool surrogate (BPS), uptake BPS 1 h, ^68Ga-labeled, BPS (blood pool surrogate), PET/CT, 1 h post tracer injection); 1.87 %ID/g in data set [4] (kidneys, uptake Kidneys 1 h, ^68Ga-labeled, PET/CT, 1 h post tracer injection); 4.37 %ID/g in data set [4] (tumor, uptake Tumor 1 h, ^68Ga-labeled, HEK-FAP tumor, PET/CT, 1 h post tracer injection). The tissue uptake at 3 h in data set [4] (blood pool surrogate (BPS), uptake BPS 3 h, ^68Ga-labeled, BPS (blood pool surrogate), PET/CT, 3 h post tracer injection) amounted to 0.49 %ID/g; in data set [4] (kidneys, uptake Kidneys 3 h, ^68Ga-labeled, PET/CT, 3 h post tracer injection) it was 0.86 %ID/g; in data set [4] (tumor, uptake Tumor 3 h, ^68Ga-labeled, HEK-FAP tumor, PET/CT, 3 h post tracer injection) it was 4.46 %ID/g. Further, the IC50 was less than 10 nM in data set [1] and 10 to 79.4 nM in data set [3] (setting [6]).
